From patent US10414760B2, “Cytochrome P450 inhibitors and uses thereof” (ANGION BIOMEDICA CORP., priority 2016, dated 2019)
pIC50: −log10 of the molar value.

Experiments:
Assay type in all cases: biochemical
[1] = molecular target: T1, CYP19 (Homo sapiens, UniProt P11511); experiment: CYP19 inhibition: commercially available recombinant enzyme and assay kit
T1 construct: purchased BD Gentest 456260
T1 sequence (P11511 1-503): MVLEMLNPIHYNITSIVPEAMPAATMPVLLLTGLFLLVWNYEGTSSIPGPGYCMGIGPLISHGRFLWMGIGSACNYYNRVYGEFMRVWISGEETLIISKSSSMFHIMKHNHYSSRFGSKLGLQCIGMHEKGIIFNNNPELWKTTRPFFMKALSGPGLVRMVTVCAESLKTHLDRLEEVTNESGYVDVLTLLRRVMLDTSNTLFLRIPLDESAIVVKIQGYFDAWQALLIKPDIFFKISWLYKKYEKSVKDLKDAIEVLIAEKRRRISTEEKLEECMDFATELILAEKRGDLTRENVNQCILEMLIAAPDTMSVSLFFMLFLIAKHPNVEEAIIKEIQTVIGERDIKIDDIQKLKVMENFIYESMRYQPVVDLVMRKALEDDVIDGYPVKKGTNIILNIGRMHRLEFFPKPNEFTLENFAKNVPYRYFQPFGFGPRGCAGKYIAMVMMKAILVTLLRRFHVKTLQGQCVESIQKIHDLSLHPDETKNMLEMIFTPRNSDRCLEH
Experimental: (§1) Serum Testosterone and PSA and Tumor Testosterone Analysis. Tumor tissue obtained from mice will be homogenized in phosphate buffer (pH 7.4, 0.1 M) and homogenates centrifuged at 2000 g for 20 min. Testosterone concentrations in the serum and in the clear tissue homogenate supernatant will be determined with the ELISA kit from R&D Systems (Catalog # KGR010). Serum PSA concentrations will be measured using a PSA ELISA kit with a serum dilution according to the manufacturers instructions. • c. Breast cancer. To test the efficacy of compounds embodied herein against breast cancer, nude mice carrying human breast cancer lines that are estrogen receptor and Aromatase positive will be used. Cells will be grown in vitro and 2 million will be inoculated in Matrigel (50:50 volume ratio of cells to Matrigel). Cells will be distributed by s.c. injection at the right and left flanks or at the orthotopic sitest in 6 to 8 week old athymic nude mice (BALB/c strain) or severe combined immunodeficient mice under anesthesia. Animals will be treated with compound for 4 weeks, at which point animals will be sacrificed and collect blood samples and tumor tissue for the determination of serum and tumor estrogen levels. Tumors will be excised and a portion will be fixed in formalin for subsequent histochemical and immuno-histochemical analysis. The remainder will be snap frozen in liquid nitrogen and stored at −80° C. • 12. CYP26 inhibition activity. A substrate depletion assay for ATRA metabolism in mouse microsomes is used. […] The assay is run in a 100 μL reaction volume and stopped with an equal volume of methanol. […] CYP17 inhibition assay: In vitro assays for CYP17 17α-hydroxylase and C17,20-lyase activity, assays using rat and dog testis microsomes and ELISA kits from commercial vendors for the detection of formed products are employed. Incubation of rat testis microsomes with the substrate progesterone (P4) results, through the CYP17 17α-hydroxylase and C17,20-lyase activities, in a marked production of androstenedione (AD) in a time and enzyme-concentration dependent manner. […] In another control, microsomes isolated from rat livers, which are known to express very little or no CYP17, are shown to be devoid of this activity. Assays are also used that determine the activity of 17α-hydroxylase activity using P4 as a substrate and detecting HOP4 as a product (using dog testis microsomes) and the activity of C17,20-lyase by using HOP4 as a substrate and AD as a product (rat testis microsomes). • 14. CYP19 inhibition assay: For in vitro assays of CYP19 aromatase activity, commercially available CYP19 enzyme preparations (e.g. BD Gentest Supersomes Catalog #456260) and assay kits (e.g. BD Gentest Catalog #459520) are employed according to the manufacturers instructions.
Selectivity for other P450 enzymes. To assess the selectivity of compounds embodied herein, activity was evaluated first against CYP3A4 and CYP19 using commercially available recombinant enzymes and assay kits. To calculate a selectivity factor, the IC50 for a particular P450 enzyme was divided by the IC50 in the CYP17 combination assay.

[2] = molecular target: T2, CYP17 (Rattus norvegicus, UniProt P11715); experiment: CYP17 inhibition: 17α hydroxylase and C17,20 lyase activity in testis microsomes, ELISA detection; conditions: for pIC50: which microsome assay (rat or dog testis) not specified
T2 construct: using rat and dog testis microsomes and ELISA kits from commercial vendors; from tissue; host or cells: rat testis microsomes
T2 sequence (P11715 1-507): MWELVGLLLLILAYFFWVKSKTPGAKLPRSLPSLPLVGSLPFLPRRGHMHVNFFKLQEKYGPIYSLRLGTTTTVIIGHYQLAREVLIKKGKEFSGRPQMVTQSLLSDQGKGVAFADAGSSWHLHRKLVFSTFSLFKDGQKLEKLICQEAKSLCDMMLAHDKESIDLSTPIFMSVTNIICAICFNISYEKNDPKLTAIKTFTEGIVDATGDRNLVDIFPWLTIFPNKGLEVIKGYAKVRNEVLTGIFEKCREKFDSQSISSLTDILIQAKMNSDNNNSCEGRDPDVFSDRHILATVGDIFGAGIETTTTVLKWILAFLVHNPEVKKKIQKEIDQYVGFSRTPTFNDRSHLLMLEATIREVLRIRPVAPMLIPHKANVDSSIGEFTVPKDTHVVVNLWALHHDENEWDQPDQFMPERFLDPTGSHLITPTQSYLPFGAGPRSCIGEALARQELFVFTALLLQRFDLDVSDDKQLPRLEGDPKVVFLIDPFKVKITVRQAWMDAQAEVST
Experimental: Serum Testosterone and PSA and Tumor Testosterone Analysis. Tumor tissue obtained from mice will be homogenized in phosphate buffer (pH 7.4, 0.1 M) and homogenates centrifuged at 2000 g for 20 min. Testosterone concentrations in the serum and in the clear tissue homogenate supernatant will be determined with the ELISA kit from R&D Systems (Catalog # KGR010). Serum PSA concentrations will be measured using a PSA ELISA kit with a serum dilution according to the manufacturers instructions. • c. Breast cancer. To test the efficacy of compounds embodied herein against breast cancer, nude mice carrying human breast cancer lines that are estrogen receptor and Aromatase positive will be used. Cells will be grown in vitro and 2 million will be inoculated in Matrigel (50:50 volume ratio of cells to Matrigel). Cells will be distributed by s.c. injection at the right and left flanks or at the orthotopic sitest in 6 to 8 week old athymic nude mice (BALB/c strain) or severe combined immunodeficient mice under anesthesia. Animals will be treated with compound for 4 weeks, at which point animals will be sacrificed and collect blood samples and tumor tissue for the determination of serum and tumor estrogen levels. Tumors will be excised and a portion will be fixed in formalin for subsequent histochemical and immuno-histochemical analysis. The remainder will be snap frozen in liquid nitrogen and stored at −80° C. • 12. CYP26 inhibition activity. […] The assay is run in a 100 μL reaction volume and stopped with an equal volume of methanol. […] CYP17 inhibition assay: In vitro assays for CYP17 17α-hydroxylase and C17,20-lyase activity, assays using rat and dog testis microsomes and ELISA kits from commercial vendors for the detection of formed products are employed. […] Assays are also used that determine the activity of 17α-hydroxylase activity using P4 as a substrate and detecting HOP4 as a product (using dog testis microsomes) and the activity of C17,20-lyase by using HOP4 as a substrate and AD as a product (rat testis microsomes). • 14.
CYP17 inhibition. In vitro assays for CYP17 17α hydroxylase and C17,20 lyase activity using rat and dog testis microsomes and ELISA kits from commercial vendors for the detection of formed products were employed. […] Assays were also used that determine the activity of 17α hydroxylase activity using P4 as a substrate and detecting HOP4 as a product (using dog testis microsomes) and the activity of C17,20 lyase by using HOP4 as a substrate and AD as a product (rat testis microsomes).

[3] = molecular target: T3, CYP26 (Mus musculus, UniProt O55127); experiment: CYP26 inhibition: substrate depletion assay for ATRA metabolism in mouse microsomes
T3 construct: tissue Xenotech; host or cells: liver microsomes of ATRA-treated mice
T3 sequence (O55127 1-497): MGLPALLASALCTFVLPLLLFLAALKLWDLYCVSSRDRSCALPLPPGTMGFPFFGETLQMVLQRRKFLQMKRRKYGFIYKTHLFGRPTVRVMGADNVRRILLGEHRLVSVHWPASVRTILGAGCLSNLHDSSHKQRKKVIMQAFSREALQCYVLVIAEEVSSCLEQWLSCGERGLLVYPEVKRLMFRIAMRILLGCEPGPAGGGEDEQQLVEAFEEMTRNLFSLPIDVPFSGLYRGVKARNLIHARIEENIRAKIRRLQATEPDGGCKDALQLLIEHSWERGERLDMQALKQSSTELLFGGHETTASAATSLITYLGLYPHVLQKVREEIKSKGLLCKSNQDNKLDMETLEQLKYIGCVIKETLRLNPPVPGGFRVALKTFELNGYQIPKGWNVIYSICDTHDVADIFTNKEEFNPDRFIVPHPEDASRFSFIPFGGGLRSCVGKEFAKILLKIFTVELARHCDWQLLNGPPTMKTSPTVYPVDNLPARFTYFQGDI
Experimental: as §1
CYP26 inhibition. […] The assay was run in a 100 μL reaction volume and stopped with an equal volume of methanol. […] Other compounds of formula (I) are similarly potent, for example with an IC50 of 1.6 nM.

Structure (SMILES): CCC(C(c1ccc2nc(N)sc2c1)n1ccnc1)N(C)CC (stereo not drawn) [Example 32, 6-(2-(Ethyl(methyl)amino)-1-(1H-imidazol-1-yl)butyl)benzo[d]thiazol-2-amine]
- pIC50 [1]: > 6.00
- pIC50 [2]: > 5.30

Structure (SMILES): CCC(C(c1ccc2nc(C(N)=O)sc2c1)n1ccnc1)N(C)C (stereo not drawn) [Example 14, 6-(2-(Dimethylamino)-1-(1H-imidazol-1-yl)butyl)benzo[d]thiazole-2-carboxamide]
- pIC50 [1]: > 6.00
- pIC50 [2]: > 5.30

Structure (SMILES): CCC(C(c1ccc2ncsc2c1)n1ccnc1)N(C)C (stereo not drawn) [Example 15, 1-(Benzo[d]thiazol-6-yl)-1-(1H-imidazol-1-yl)-N,N-dimethylbutan-2-amine]
- pIC50 [1]: > 6.00
- pIC50 [2]: > 5.30

Structure (SMILES): CCC(C(c1ccc2nc(Cl)sc2c1)n1ccnc1)N(C)CC (stereo not drawn) [Example 10, 1-(2-Chlorobenzo[d]thiazol-6-yl)-N-ethyl-1-(1H-imidazol-1-yl)-N-methylbutan-2-amine]
- pIC50 [1]: > 6.00
- pIC50 [2]: > 5.30

Structure (SMILES): CCC(CC)C(c1ccc2nc(Br)sc2c1)n1ccnc1 (stereo not drawn) [Example 28, 2-bromo-6-(2-ethyl-1-(1H-imidazol-1-yl)butyl)benzo[d]thiazole]
- pIC50 [1]: > 6.00
- pIC50 [2]: > 5.30

Structure (SMILES): CCC(C(c1ccc2nc(NC(N)=O)sc2c1)n1ccnc1)N(C)C (stereo not drawn) [Example 2, 1-(6-(2-(Dimethylamino)-1-(1H-imidazol-1-yl)butyl)benzo[d]thiazol-2-yl)urea]
- pIC50 [1]: > 6.00
- pIC50 [2]: > 5.30

Structure (SMILES): CCC(CC)C(c1ccc2nc(N)sc2c1)n1ccnc1 (stereo not drawn) [Example 27, 6-(2-Ethyl-1-(1H-imidazol-1-yl)butyl)benzo[d]thiazol-2-amine]
- pIC50 [1]: > 6.00
- pIC50 [2]: > 5.30

Structure (SMILES): CCC(C(c1ccc2nc(C(=N)OC)sc2c1)n1ccnc1)N(C)C (stereo not drawn) [Example 13, Methyl 6-(2-(dimethylamino)-1-(1H-imidazol-1-yl)butyl)benzo[d]thiazole-2-carbimidate]
- pIC50 [1]: > 6.00
- pIC50 [2]: > 5.30

Structure (SMILES): CCC(C(c1ccc2nc(C(=O)OC)sc2c1)n1ccnc1)N(C)C (stereo not drawn) [Example 12, Methyl 6-(2-(dimethylamino)-1-(1H-imidazol-1-yl)butyl)benzo[d]thiazole-2-carboxylate]
- pIC50 [1]: > 6.00
- pIC50 [2]: > 5.30

Structure (SMILES): CC(=O)O[C@H]1CC[C@@]2(C)C(=CC[C@@H]3[C@@H]2CC[C@]2(C)C(c4cccnc4)=CC[C@@H]32)C1 [abiraterone acetate, reference compound]
- Inhibition of androstenedione (AD) production from progesterone (P4) ([2]; rat testis microsomes, 17α hydroxylase and C17,20 lyase activities): completely inhibited

Structure (SMILES): CCC(C(c1ccc2nc(-c3ccc(F)c(C(=O)O)c3)sc2c1)n1ccnc1)N(C)C (stereo not drawn) [Example 66, 5-(6-(2-(Dimethylamino)-1-(1H-imidazol-1-yl)butyl)benzo[d]thiazol-2-yl)-2-fluorobenzoic acid]
- pIC50 [3]: > 6.00

Structure (SMILES): CCC(C(c1ccc2nc(Br)sc2c1)n1ccnc1)N(C)CC (stereo not drawn) [Example 36, 1-(2-Bromobenzo[d]thiazol-6-yl)-N-ethyl-1-(1H-imidazol-1-yl)-N-methylbutan-2-amine]
- pIC50 [1]: > 6.00
- pIC50 [2]: > 5.30

Structure (SMILES): CCC(C(c1ccc2nc(-c3ccc(C(=O)O)cc3)sc2c1)n1ccnc1)N(C)CC (stereo not drawn) [Example 58, 4-(6-(2-(Ethyl(methyl)amino)-1-(1H-imidazol-1-yl)butyl)benzo[d]thiazol-2-yl)benzoic acid]
- pIC50 [3]: > 6.00

Structure (SMILES): CCC(C(c1ccc2nc(-c3cccc(-c4nn[nH]n4)c3)sc2c1)n1ccnc1)N(C)C (stereo not drawn) [Example 71, 1-(2-(3-(2H-Tetrazol-5-yl)phenyl)benzo[d]thiazol-6-yl)-1-(1H-imidazol-1-yl)-N,N-dimethylbutan-2-amine]
- pIC50 [3]: > 6.00

Structure (SMILES): CCC(C(c1ccc2nc(NC(C)=O)sc2c1)n1ccnc1)N(C)CC (stereo not drawn) [Example 9, N-(6-(2-(Ethyl(methyl)amino)-1-(1H-imidazol-1-yl)butyl)benzo[d]thiazol-2-yl)acetamide]
- pIC50 [1]: > 6.00
- pIC50 [2]: > 5.30

Structure (SMILES): CCC(CC)C(c1ccc2nc(-c3cccc(C(=O)O)c3)sc2c1)n1ccnc1 (stereo not drawn) [3-(6-(2-Ethyl-1-(1H-imidazol-1-yl)butyl)benzo[d]thiazol-2-yl)benzoic acid]
- pIC50 [3]: > 6.00
